Experimental data published in ChEMBL document CHEMBL1158194, “Phytogrowth-inhibitory compounds from Malmea depressa” (J Nat Prod, 1996).
Converted amounts (≈) assume the structure as drawn.

Tests used:
[1] = test system: Trichophyton mentagrophytes; experiment: Antifungal activity against Trichophyton mentagrophytes ATCC 9129 by agar dilution method; type: functional
MCF7 = experiment: Cytotoxicity against human MCF7 cells; type: functional; details: read-out: ED50 (the source's name)
[2] = Toxicity in brine shrimp larvae; type: organism-based; details: artemia, in vivo
A549 = experiment: Cytotoxicity against human A549 cells; type: functional; details: read-out: ED50 (the source's name)
Echinochloa crus-galli = experiment: Inhibition of phytogrowth in Echinochloa crus-galli seedlings measured after 48 hrs incubation under dark condition; type: functional, organism-based
HT-29 = experiment: Cytotoxicity against human HT29 cells; type: functional; details: read-out: ED50 (the source's name)
[3] = test system: Amaranthus hypochondriacus; experiment: Inhibition of phytogrowth in Amaranthus hypochondriacus seedlings measured after 24 hrs incubation under dark condition; type: functional, organism-based
Fusarium oxysporum = experiment: Antifungal activity against Fusarium oxysporum; type: functional
Aspergillus niger = experiment: Antifungal activity against Aspergillus niger ATCC 16888 by agar dilution method; type: functional

Structure (SMILES) | MIC [1] [µg/mL] | EC50 (MCF7) [µg/mL] | EC50 (A549) [µg/mL] | IC50 (Echinochloa crus-galli) [µg/mL] | EC50 (HT-29) [µg/mL] | IC50 [3] [µg/mL] | further results
C=CCc1cc(OC)c(OC)c(OC)c1OC | 500 (≈ 2100 µM) | 46 (≈ 193 µM) | 29 (≈ 122 µM) | 810 (≈ 3400 µM) | 71 (≈ 298 µM) | 43 (≈ 180 µM) | LC50 [2]: 144 µg/mL (≈ 604 µM); MIC (Fusarium oxysporum): 250 µg/mL (≈ 1050 µM)
COc1cc(C=O)c(OC)c(OC)c1OC | – | – | – | > 1000 | – | 822 (≈ 3630 µM) | –
C[C@@H]1[C@H](O)[C@@H](C)/C=C/C=C/C=C/C=C/C=C/C=C/C=C/[C@H](O[C@@H]2O[C@H](C)[C@@H](O)[C@H](N)[C@@H]2O)C[C@@H]2O[C@](O)(C[C@@H](O)C[C@@H](O)[C@H](O)CC[C@@H](O)C[C@@H](O)CC(=O)O[C@H]1C)C[C@H](O)[C@H]2C(=O)O [AMPHOTERICIN B] | – | – | – | – | – | – | MIC (Aspergillus niger): 3 µg/mL (≈ 3.25 µM)
COc1cccc2c1C(=O)c1c(O)c3c(c(O)c1C2=O)C[C@@](O)(C(=O)CO)C[C@@H]3O[C@H]1C[C@H](N)[C@H](O)[C@H](C)O1 [DOXORUBICIN] | – | 0.3 (≈ 0.552 µM) | 0.03 (≈ 0.0552 µM) | – | 0.007 (≈ 0.0129 µM) | – | –
COC1=CC(=O)C[C@@H](C)[C@]12Oc1c(Cl)c(OC)cc(OC)c1C2=O [GRISEOFULVIN] | 2.6 (≈ 7.37 µM) | – | – | – | – | – | –
CCCCC[C@H]1CCCCCCCCCC(=O)O[C@H]2[C@H](O)[C@@H](CO)O[C@@H](O[C@H]3[C@H](O1)O[C@H](C)[C@H](O)[C@@H]3O)[C@@H]2O[C@@H]1O[C@@H](C)[C@H](OC(=O)[C@@H](C)CC)[C@@H](O[C@@H]2O[C@@H](C)[C@H](O)[C@@H](O)[C@H]2O)[C@H]1OC(=O)[C@@H](C)CC [TRICOLORIN A] | – | – | – | 12 (≈ 11.7 µM) | – | – | –
